Blank lines part the entries; values can stand above or below the molecule they belong to.
Key:
[1] = Hydroxyapatite (HAP) affinity by chromatographic profiling on HAP column; format: binding; settings: phosphate gradient 1 mM to 1000 mM, pH 6.8
ERK = assay: Expression and activation (phosphorylation) of ERK in myocardial tissue, SHAM or TAC mice, immunoblot and densitometry; format: in vivo, mouse
[2] = biological target: T1, human farnesyl pyrophosphate synthase (FPPS) (Homo sapiens, UniProt P14324); assay: FPPS inhibition, in vitro, recombinant enzyme; format: biochemical; settings: GPP and IPP 10 μM each, 37° C., read-out: FFPPS nM IC50
T1 construct: made in house
T1 sequence (P14324 67-419 limits assumed): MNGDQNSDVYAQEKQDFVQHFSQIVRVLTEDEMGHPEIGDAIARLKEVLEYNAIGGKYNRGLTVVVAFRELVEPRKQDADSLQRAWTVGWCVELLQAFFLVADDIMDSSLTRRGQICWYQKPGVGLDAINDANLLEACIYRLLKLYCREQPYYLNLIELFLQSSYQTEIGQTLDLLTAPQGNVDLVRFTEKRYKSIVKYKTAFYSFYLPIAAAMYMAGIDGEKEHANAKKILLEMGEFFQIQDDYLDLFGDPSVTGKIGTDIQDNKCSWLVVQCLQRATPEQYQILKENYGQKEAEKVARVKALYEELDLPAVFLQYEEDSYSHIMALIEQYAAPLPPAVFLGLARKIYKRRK

- HAP mineral binding (retention time in mins) [1]: 6.17 min
- IC50 [2]: 2.5 nM
SMILES: O=P(O)(O)C(F)(Cc1cnc2ccccn12)P(=O)(O)O [Ox-14, 1-fluoro-2-(imidazo-[1,2-a]pyridine-3-yl)-ethyl-bisphosphonic acid]
- level of expression of ERK (ERK; SHAM animals, FIG. 1, myocardial lysate, subcutaneous dosing): did not change
- phosphorylation of ERK (ERK; SHAM animals, FIG. 1 and FIG. 2, myocardial lysate): not as evident
- pERK/tERK ratio, fold increase (ERK; SHAM group, with respect to saline treated SHAM animals, FIG. 3): ~3 fold
- level of phosphorylation of ERK (ERK; TAC conditioned animals, FIG. 2): substantial increase
- pERK/tERK ratio, fold increase (ERK; TAC group relative to saline SHAM group, FIG. 3): ~5 fold
- pERK/tERK activity relative to zoledronic acid administered TAC group (ERK; TAC group, FIG. 3): about double

SMILES: CCCCCN(C)CCC(O)(P(=O)(O)O)P(=O)(O)O [Ibandronate]
- HAP mineral binding (retention time in mins) [1]: ~11 min

- HAP mineral binding (retention time in mins) [1]: 9.97 min
SMILES: O=P(O)(O)C(O)(Cc1cccnc1)P(=O)(O)O [Risedronate]

SMILES: O=P(O)(O)C(O)(Cc1cnc2ccccn12)P(=O)(O)O [Minodronate]
- HAP mineral binding (retention time in mins) [1]: 10.33 min

Reference: patent US9949992B2, “Bisphosphonate compositions and methods for treating and\or reducing cardiac dysfunction” (DUKE UNIVERSITY, priority 2011, dated 2018)
